Reference: patent US20250032375A1, “SOLVENT MIXTURES COMPRISING 1,3-BUTYLENE GLYCOL AND TRIETHYL-CITRATE” (Givaudan SA, priority 2022, published 2025)
Structures can show the parent of a compound that is named as a salt. Where two headings read alike, the source gives them in different places.

Columns and labels:
[1] = Miscibility and stability in matrix and application; conditions: for miscibility and stability properties compared to DPG: fragrance oil matrix and Eau de Toilette (at 10%)
Text: The miscibility and stability of the solvent mixture of the present invention was compared with those of DPG and the pure mixture ingredients. The miscibility with isopropyl myristate (IPM) and ethylene brassylate (EB) mimics the miscibility with a fragrance oil matrix.

[2] = Solubility by absorption spectrometry (absorbance at 600 nm, 1 cm path)
Description: (§1) If the sample is dissolved, there is low absorbance (close to zero), any turbidity (>0.5) indicates incomplete solution.

[3] = Solubility by visual inspection
Description: as §1

[4] = Vanillin solubility in other solvents; assay type: physicochemical
[5] = Solubility and storage stability of fragrance ingredients in TEC/1,3-butylene glycol 80/20 mixture; assay type: physicochemical; conditions: for solubility: t = 0, 5 min. heating at 50° C. + 8-10 hrs. stirring at room temperature
Description: In the table above, the solubility of single ingredients solubility has been summarized. […] Furthermore, the storage stability at 5 and 60° C. for 14 days have been tested.

[6] = 10% in EDT premix, 14 days 5° C.
[7] = 10% in EDT premix, t = 0 at room temperature
[8] = 10% in 1,3-butylene glycol (*), sample heated and cooled down to room temperature
[9] = 10% in 1:1 MIX (*), sample heated and cooled down to room temperature
[10] = 10% in 1:3 MIX (*), sample heated and cooled down to room temperature
[11] = 10% in 3:1 MIX (*), sample heated and cooled down to room temperature
[12] = 10% in TEC (*), sample heated and cooled down to room temperature
[13] = 1% in 1,3-butylene glycol (*), sample heated and cooled down to room temperature
[14] = 1% in 1:3 MIX (*), sample heated and cooled down to room temperature
[15] = 1% in 3:1 MIX (*), sample heated and cooled down to room temperature
[16] = 1% in TEC (*), sample heated and cooled down to room temperature

For `CC(O)CCO` (centres unmarked) [1,3-butylene glycol], the “miscibility and stability rating” value ([1]; 10% in EDT premix, 24 h UV) was “clear”, the “miscibility and stability rating” value [1, 6] was “clear” and the “miscibility and stability rating” value [1, 7] was “clear”. The “miscibility and stability rating” value ([1]; 10% in IPM, 14 days 5° C.) was “biphasic, hazy”, the “miscibility and stability properties compared to DPG” value [1] was “show disadvantages when compared to DPG” and the “miscibility and stability rating” value ([1]; pure, 14 days 5° C.) was “clear”.

For `O=c1ccc2ccccc2o1` [Coumarine Pure Crist, 1-benzopyran-2-one], the “ultrasonic bath, spectrometer” value [2, 8] was 0.06 AU, the “ultrasonic bath, spectrometer” value [2, 9] was 0.05 AU and the “ultrasonic bath, spectrometer” value [2, 10] was 0.00 AU. The “ultrasonic bath, spectrometer” value [2, 11] was 0.02 AU, the “ultrasonic bath, spectrometer” value [2, 12] was 0.07 AU and the visual inspection [3, 8] was “soluble”. The visual inspection [3, 9] was “soluble”, the visual inspection [3, 10] was “soluble” and the visual inspection [3, 11] was “soluble”. The visual inspection [3, 12] was “soluble”.

In the case of `CCOc1cc(C=O)ccc1O` [Ethyl Vanilline, 3-Ethoxy-4-hydroxybenzaldehyde], the “ultrasonic bath, spectrometer” value (30 %) is reported as 0.00 AU and the “ultrasonic bath, spectrometer” value (40 %) is reported as 0.04 AU.

In the case of `Cc1occc(=O)c1O` [Maltol Lg Crist, 3-hydroxy-2-methyl pyran-4-one], the “ultrasonic bath, spectrometer” value [2, 13] is reported as “solid”, the “ultrasonic bath, spectrometer” value [2, 14] is reported as 0.02 AU and the “ultrasonic bath, spectrometer” value [2, 15] is reported as 0.02 AU. The “ultrasonic bath, spectrometer” value [2, 16] was “solid”, the visual inspection [3, 13] was “non soluble” and the visual inspection [3, 14] was “soluble”. The visual inspection [3, 15] was “soluble” and the visual inspection [3, 16] was “non soluble”.

For `N#CC(=C1CCCCC1)c1ccccc1` [Peonile, 2-cyclohexylidene-2-phenylacetonitrile], the “ultrasonic bath, spectrometer” value ([2]; 10% in 1,3-butylene glycol) was over 2 AU, the “ultrasonic bath, spectrometer” value ([2]; 10% in 1:1 MIX) was 0.00 AU and the “ultrasonic bath, spectrometer” value ([2]; 10% in 1:3 MIX) was 0.02 AU. The “ultrasonic bath, spectrometer” value ([2]; 10% in 3:1 MIX) was 0.02 AU, the “ultrasonic bath, spectrometer” value ([2]; 10% in TEC) was 0.02 AU and the visual inspection ([3]; 10% in 1,3-butylene glycol) was “non soluble”. For the same compound, the visual inspection ([3]; 10% in 1:1 MIX) was “soluble”, the visual inspection ([3]; 10% in 1:3 MIX) was “soluble” and the visual inspection ([3]; 10% in 3:1 MIX) was “soluble”. The visual inspection ([3]; 10% in TEC) was “soluble”.

In the case of `CCOC(=O)CC(O)(CC(=O)OCC)C(=O)OCC` [TEC, Triethyl citrate], the “miscibility and stability rating” value ([1]; 3% in EDT premix, 24 h UV) is reported as “clear”, the “miscibility and stability rating” value ([1]; 3% in EDT premix, 14 days 5° C.) is reported as “clear” and the “miscibility and stability rating” value ([1]; 3% in EDT premix, 14 days −10° C.) is reported as “clear”. For the same compound, the “miscibility and stability rating” value ([1]; 3% in EDT premix, t = 0 at room temperature) was “clear”, the “miscibility and stability rating” value ([1]; 5% in EDT premix, 24 h UV) was “clear” and the “miscibility and stability rating” value ([1]; 5% in EDT premix, 14 days 5° C.) was “clear”. The “miscibility and stability rating” value ([1]; 5% in EDT premix, 14 days −10° C.) was “clear”, the “miscibility and stability rating” value ([1]; 5% in EDT premix, t = 0 at room temperature) was “clear” and the “miscibility and stability rating” value ([1]; 10% in EB, 24 h UV) was “clear”. The “miscibility and stability rating” value ([1]; 10% in EB, 14 d 60° C.) was “clear”, the “miscibility and stability rating” value ([1]; 10% in EB, 14 days 5° C.) was “clear” and the “miscibility and stability rating” value ([1]; 10% in EDT premix, 24 h UV) was “clear”. The “miscibility and stability rating” value ([1]; 10% in EDT premix, 14 d 60° C.) was “clear”, the “miscibility and stability rating” value [1, 6] was “clear” and the “miscibility and stability rating” value ([1]; 10% in EDT premix, 14 days −10° C.) was “clear”. For the same compound, the “miscibility and stability rating” value [1, 7] was “clear”, the “miscibility and stability rating” value ([1]; 10% in IPM, 24 h UV) was “clear” and the “miscibility and stability rating” value ([1]; 10% in IPM, 14 d 60° C.) was “clear”. The “miscibility and stability rating” value ([1]; 10% in IPM, 14 days 5° C.) was “clear” and the “miscibility and stability properties compared to DPG” value [1] was “show disadvantages when compared to DPG”.

In the case of `COc1cc(C=O)ccc1O` [vanillin, 4-hydroxy-3-methoxybenzaldehyde], the “amount that can be dissolved” value ([4]; in DPG, when saturation occurs) is reported as “about 20%”, the “amount that can be dissolved” value ([4]; in triethylcitrate (TEC)) is reported as “less than 15%” and the solubility ([5]; 15% in MIX 80/20) is reported as “Solubility OK”. For the same compound, the solubility ([5]; 20% in MIX 80/20) was “Solubility OK”, the solubility ([5]; 25% in MIX 80/20) was “Solubility OK” and the “amount that can be dissolved” value ([5]; in the solvent mixture of the present invention) was “at least 25%”.
